According to patent publication US20250144067A1, “PERSONALIZED STARVATION THERAPY FOR CANCER” (Faeth Therapeutics, Inc., priority 2021, published 2025):
Numbered stars: 1 amine (or outer) side, 2 acyl side, 3 side chain; on linkers, the order of the positions; unused ones are H or OH. Bridge positions count the residues as written; N and C are the ends. Peptide text beside a SMILES is read from it. X2 = O=C(CCC[*:2])[*:1]

Legend:
[1] = tested on: NCI-H292 lung cancer cells; experiment: FDA drug screening, complete media vs cholesterol-free media with simvastatin (TABLE 2); assay type: cell-based, human; conditions: for Cholesterol-free media + simvastatin (0.04 μM) / Complete Media: NCI-H292 cells
[2] = tested on: NCI-H292 lung cancer cells; experiment: FDA drug screening, complete media vs cholesterol-free media without statin (TABLE 1); assay type: cell-based, human
[3] = FDA drug library screen, cholesterol-free media with simvastatin 0.04 μM
[4] = FDA drug library screen, complete media
[5] = complete media minus cholesterol-free media + simvastatin, >0 enhanced anti-cancer activity, about 0 neutral, <0 antagonist
[6] = Complete minus Cholesterol-free; >0 enhanced anti-cancer activity, about 0 neutral, <0 antagonist
[7] = NCI-H292 cells, cholesterol-free media without statin
[8] = FDA library drug in cholesterol-free media with simvastatin 0.04 μM
[9] = FDA library drug in complete media
[10] = complete media vs cholesterol-free media + simvastatin (0.04 μM), >0 enhanced anti-cancer activity, about 0 neutral, <0 antagonist
[11] = cholesterol-free media with simvastatin 0.04 μM, FDA drug library screen (TABLE 2)
[12] = complete media, FDA drug library screen (TABLE 2)
[13] = complete media minus cholesterol-free media + simvastatin (0.04 μM), >0 enhanced anti-cancer activity, about 0 neutral, <0 antagonist
[14] = Complete minus Cholesterol-free; greater than 0 enhanced anti-cancer activity, about 0 neutral, below 0 antagonist
[15] = NCI-H292 cells, FDA drug library screen, cholesterol-free media without statin
[16] = NCI-H292 cells, FDA drug library screen, complete media
[17] = NCI-H292 cells, cholesterol-free media without statin, FDA drug library screen
[18] = NCI-H292 cells, complete media, FDA drug library screen
[19] = Complete minus Cholesterol-free; […]

| SMILES | Difference [2, 6] | Cholesterol-free [2, 7] | Complete ([2]; NCI-H292 cells, complete media) | Difference [1, 10] | Cholesterol-free media + simvastatin (0.04 μM) [1, 11] | Complete Media [1, 12] | Difference [1, 13] | Cholesterol-free [2, 17] | Complete [2, 18] | other results |
| --- | --- | --- | --- | --- | --- | --- | --- | --- | --- | --- |
| C[C@]12CCC(=O)C=C1C=C[C@@H]1[C@@H]2CC[C@@]2(C)[C@H]1CC[C@@]21CCC(=O)O1 [Canrenone] | −0.20 | 1.047 | 0.8458 | – | – | – | – | – | – | Cholesterol-free media + simvastatin (0.04 μM) [1, 3]: 1.098; Complete Media [1, 4]: 1.452; Difference [1, 5]: 0.35 |
| CCCCCOC(=O)Nc1nc(=O)n([C@@H]2O[C@H](C)[C@@H](O)[C@H]2O)cc1F [Capecitabine] | −0.20 | 1.138 | 0.9364 | −0.59 | – | – | – | – | – | Cholesterol-free media + simvastatin (0.04 μM) [1, 8]: 1.236; Complete Media [1, 9]: 0.648 |
| COc1cc(CNC(=O)CCCC/C=C/C(C)C)ccc1O [Capsaicin] | −0.28 | 1.197 | 0.9142 | – | 1.403 | 1.38 | −0.02 | – | – | – |
| C[C@H](CS)C(=O)N1CCC[C@H]1C(=O)O [Captopril] | −0.19 | 0.897 | 0.704 | – | 0.8354 | 0.832 | 0.00 | – | – | – |
| NC(=O)N1c2ccccc2C=Cc2ccccc21 [Carbamazepine] | – | 1.302 | 0.9337 | −0.23 | – | – | – | – | – | Cholesterol-free media + simvastatin (0.04 μM) ([1]; drug in cholesterol-free media with simvastatin 0.04 μM): 1.226; Complete Media ([1]; drug in complete media): 0.9955; Difference ([2]; complete vs cholesterol-free media; greater than 0 enhanced anti-cancer activity, about 0 neutral, below 0 antagonists): −0.37 |
| CN1CC(O)C2=C/C(=N/NC(N)=O)C(=O)C=C21 (stereo not drawn) [Carbazochrome] | – | – | – | – | – | – | – | – | – | Cholesterol-free media + simvastatin (0.04 μM) [1, 3]: 1.082; Complete Media [1, 4]: 1.238; Difference [1, 5]: 0.16; Difference [2, 14]: −0.14; Cholesterol-free [2, 15]: 1.112; Complete [2, 16]: 0.9668 |
| CC1(C)[C@@H](OC(=O)CCC(=O)O)CC[C@]2(C)[C@H]3C(=O)C=C4[C@@H]5C[C@@](C)(C(=O)O)CC[C@]5(C)CC[C@@]4(C)[C@]3(C)CC[C@@H]12 [Carbenoxolone (disodium)] | −0.05 | – | – | – | 0.9745 | 0.9823 | 0.01 | 1.149 | 1.095 | – |
| CC[C@H](C)[C@@H]1NC(=O)[C@H](Cc2ccc(OC)cc2)NC(=O)CCCSC[C@@H](C(=O)N2CCC[C@H]2C(=O)N[C@@H](CC(C)C)C(=O)NCC(N)=O)NC(=O)[C@H](CC(N)=O)NC(=O)[C@H](CCC(N)=O)NC1=O [Carbetocin] (Y(Me)IQNCPLG-NH2; linker N-5 via X2) | – | 1.283 | 1.021 | – | – | – | – | – | – | Cholesterol-free media + simvastatin (0.04 μM) [1, 3]: 1.6; Complete Media [1, 4]: 1.76; Difference ([1]; complete media minus cholesterol-free media + simvastatin, […]): 0.16; Difference [2, 19]: −0.26 |
| C[C@@](Cc1ccc(O)c(O)c1)(NN)C(=O)O [Carbidopa] | – | – | – | −0.74 | – | – | – | – | – | Cholesterol-free media + simvastatin (0.04 μM) [1, 8]: 1.956; Complete Media [1, 9]: 1.221; Difference [2, 14]: −0.16; Cholesterol-free [2, 15]: 1.15; Complete [2, 16]: 0.9946 |
| CCOC(=O)n1ccn(C)c1=S [Carbimazole] | – | – | – | – | – | – | – | 1.183 | 1.469 | Cholesterol-free media + simvastatin (0.04 μM) ([1]; cholesterol-free media with simvastatin 0.04 μM, cell growth value in FDA drug screen): 1.468; Complete Media ([1]; complete media, cell growth value in FDA drug screen): 1.519; Difference [1, 5]: 0.05; Difference ([2]; complete vs cholesterol-free media; >0 enhanced anti-cancer activity, about 0 neutral, <0 antagonist): 0.29 |
| N[C@@H](CSCC(=O)O)C(=O)O [Carbocisteine] | −0.04 | – | – | – | 0.934 | 0.9494 | 0.02 | 1.486 | 1.447 | – |
| CCCCC[C@](C)(O)/C=C/[C@@H]1[C@@H](C/C=C\CCCC(=O)O)[C@@H](O)C[C@H]1O.NC(CO)(CO)CO [Carboprost (tromethamine)] | – | – | – | −0.29 | – | – | – | – | – | Cholesterol-free media + simvastatin (0.04 μM) [1, 8]: 1.591; Complete Media [1, 9]: 1.306; Difference [2, 14]: −0.14; Cholesterol-free [2, 15]: 1.222; Complete [2, 16]: 1.08 |
| CC1=C(C(=O)Nc2ccccc2)SCCO1 [Carboxin] | – | – | – | – | 0.9577 | 0.9272 | – | 1.397 | 1.326 | Difference ([1]; complete media minus cholesterol-free media + simvastatin (0.04 μM), […]): −0.03; Difference [2, 19]: −0.07 |
